Test system: corn
Test: Spray chamber treatment of corn plots grown to 12 inches: efficacy of clethodim with or without mannitol or sorbitol
Format: in vivo
Conditions: 14 days after treatment; clethodim 55.4 g/HA, mannitol or sorbitol 6800 g/HA where present; all compositions with 1% v/v Agridex and 0.25% v/v Induce; corn 12 inches in height
Method: 4 trials were conducted on the efficacy of clethodim with or without mannitol or sorbitol. Specifically, 4 plots of corn were grown to 12 inches in height. These plots were placed in a spray chamber for treatment. All compositions contained 1% v/v of Agridex® and 0.25% v/v of Induce®. Treatments and results can be found in Table 1, below.

## CCSC(C)CC1CC(=O)C(/C(CC)=N/OC/C=C/Cl)=C(O)C1 (stereo not shown) [Clethodim, clethodim]
  Days After Treatment (% control) 14: 20.8 % control
